One compound from patent US20060014726A1, “Derivatives of cyclic1, 3- propanediol phosphate and their action in differentiation therapy” (priority 2002, published 2006) can be followed below.

Data set [1] deals with ER-α mRNA in MCF-7 cells. Kind of data set: Quantitative RT-PCR of ER-α mRNA in MCF-7 cells. Format: cell-based, human. The procedure: It should however be understood that the augmented expression of ER-α and PR presented in FIGS. 1-3 could have in principle originated from increase in either transcription or translation associated with the respective steroid receptor genes. Therefore the effects of long term incubation with 1,3cPP on the respective ER-α and PR mRNA levels were examined. Quantitative RT-PCR was carried out with a Light Cycler as described. […] In contrast, only 20 μM 1,3-cPP were required to induce 7-fold increase in the ER-α mRNA in T47D clone 8 cells (FIG. 4D). The analogous data for PR are depicted for MCF-7 cells in FIGS. 5A-B where at 20 μM, there was a 3 fold increase in the normalized PR mRNA expression on the 8th day. This increase receded to about 1.5-fold by the 11th day.
MCF-7 and T47D cells were cultured and treated as described above. Total cellular RNA was extracted with TRI reagent according to the manufacturer's instructions (Molecular Research Center, Inc. Cincinnati, Ohio). Reverse transcription (RT) was performed in a total reaction mixture of 20 μl with 1-5 μg RNA by first heating to 65° C. for 5 min in the presence of 25 μg/ml Oligo (dT)12-18, and 0.5 mM deoxynucleotide triphosphates (dNTP). The RT reaction mixture was then quickly cooled on ice. […]
(§1) RT-PCR was carried out on a programmable thermal controller instrument according to standard protocols, where the annealing temperatures were 58° C. for ER-α and 56° C. for PR. […] The PCR products were diluted and used to build a standard curve for the quantitative PCR which was carried out in a Light Cycler instrument (Roche Diagnostics, Mannheim, Germany). […] For each control and test sample, the amount of the constitutively expressed house keeping enzyme glyceraldehyde-3-phosphate dehydrogenase (GAPDH) mRNA was quantified by using appropriate primers and the quantity of ER-α and PR mRNA were normalized to the quantity of GAPDH mRNA in each sample. The relative amounts of ER-α and PR mRNA were expressed as normalized 1,3cPP treatment values divided by the normalized control values.

For data set [2], the system named is ER-α mRNA in T47D clone 8 cells. Kind of data set: Quantitative RT-PCR of ER-α mRNA in T47D clone 8 cells. The following applies: 20 μM, 6 days (FIG. 4D). It is filed as cell-based, human. The procedure: It should however be understood that the augmented expression of ER-α and PR presented in FIGS. 1-3 could have in principle originated from increase in either transcription or translation associated with the respective steroid receptor genes. Therefore the effects of long term incubation with 1,3cPP on the respective ER-α and PR mRNA levels were examined. Quantitative RT-PCR was carried out with a Light Cycler as described. […] In contrast, only 20 μM 1,3-cPP were required to induce 7-fold increase in the ER-α mRNA in T47D clone 8 cells (FIG. 4D). […]
as §1

Data set [3] concerns MCF-7 cells. Briefly: Anti-tumor assay, MCF-7 tumors in athymic CD-1 mice. Format: in vivo. The procedure: To test this possibility, we followed the procedure of Kurokawa et al. Female athymic outbred CD-1 mice were implanted with a slow release estradiol tablet and injected intra-fat-pad (i.f.p.) in the lower right abdomen 3×10^6 viable MCF-7 cells (see Materials and Methods). Twelve days later, when the tumors became palpable, mice were randomly allocated into two groups, each with six mice. The control group was injected with PBS i.p. and the treatment group was injected with 0.5 mg 1,3cPP dissolved in PBS i.p. in the lower left abdomen on day 1,3,6, and 8. Tumor size was then measured 2-3 times a week. In the control group, the tumors grew continuously and reached an average size of >1250 mm^3. The origin of the large variation in tumor size was due to one mouse with a relatively small tumor in this group.
Female athymic outbred CD-1 mice 12 weeks of age were obtained from the animal breeding center of our Institute. Animals were maintained and treated according to “Principles of laboratory animal care”, (NIH publication no. 85-23) under the supervision of the Council for Experiments on animals, of our Institute. Mice were anesthetized and implanted subcutaneously with a 0.25 mg, 21-day release 17β-estradiol pellet (Innovative Research of America, Sarasota, Fla.) in the dorsal space and injected intra-fat-pad (i.f.p.) in the lower right abdomen with 3×10^6 MCF-7 cells. Twelve days later, when the tumors became palpable, mice were randomly allocated into two groups, each with 6 mice. The control group was injected with PBS and the treatment group was injected with 0.5 mg 1,3cPP in PBS i.p. in the lower left abdomen on day 1,3,6, and 8. Tumor diameters were serially measured with calipers assuming a hemiellipsoid shape, where volume=[…]×(length/2)×(width/2)×(thickness/2).

The nature of data set [4]: Acute toxicity testing. It is filed as in vivo. As to conditions: CD-1 mice. The procedure: The acute toxicity of 1,3cPP was determined in CD-1 male and female mice, 8-12 weeks of age, via i.v., i.p. and p.o. routes of administration.
[5] abbreviates: 0.5 mg i.p. on day 1,3,6 and 8, athymic CD-1 mice.

With `O=P1(O)OCCCO1` [1,3-cPP, 1,3-cyclic propanediol phosphate], the “increase in the normalized ER-α mRNA transcription” value in data set [1] (50 μM, 11th day) was 10 fold; in data set [1] (100 μM, day 6, normalized to GAPDH, relative to control), 6 fold; in data set [1] (100 μM, day 14, normalized to GAPDH, relative to control), 6 fold. The “increase in the ER-α mRNA” value in data set [2] is given as 7 fold. Also, the “changes in appearance, body weight or behavior upon injection” value in data set [3] (setting [5]) is “no changes in appearance, body weight or behavior”. Also, in data set [3] (setting [5]), the “toxic effects during the course of the experiment” value is given as “No observable toxic effects”. Further, the “tumor size, treatment versus control group” value in data set [3] (0.5 mg i.p. on day 1,3,6 and 8, day 36 (P=0.032) and day 43 (P=0.032), MCF-7 tumors in athymic CD-1 mice) is “significant difference”. Further, the “acute 24 hr toxicity, pharmacotoxic effects” value in data set [4] (i.p., doses of 0.25-5.0 g/kg) is reported as “no pharmacotoxic effects were observed”. For the same compound, in data set [4] (i.v., i.p. and p.o.), the “toxicity classification following conventional criteria” value is listed as “practically non-toxic substance”. In addition, the “acute toxicity, changes in body weight and behavior” value in data set [4] (i.v., up to 1 g/kg) was “no changes in body weight nor in behavior”; in data set [4] (p.o., up to 10 g/kg), “no changes in body weight nor in behavior”.
